The values that follow come from publication PMC12655252, “Synthesis of 1H-Pyrrolo[3,2-g]isoquinoline Derivatives as Ligands Targeting Haspin Kinase” (Molecules, 2025).

The subject of this assay is endogenous Haspin kinase (phosphorylation of Histone H3 on Thr3) in U2OS cells. Description: H3T3ph immunofluorescence assay in U2OS cells (cellular endogenous Haspin activity). The conditions noted are these: 1 μM, 16 h, positive control. In kind it is cell-based. On the procedure:
In order to assess the ability of our most interesting compounds to inhibit cellular endogenous Haspin kinase, we evaluated their effects on the phosphorylation of Histone H3 on Thr3, a bona fide Haspin substrate (Figure 4). We treated osteosarcoma U2OS cells with 2.5 μM of selected compounds for 16 h before quantifying H3T3 phosphorylation by immunofluorescence on early mitotic cells (Figure 4A,B). […] This discrepency could be explained by the inability of this compound to cross the plasma membrane or by reduced stability in a cellular environment.
Ethical approval for this study was obtained (9 July 2025) from DGRI-LabOGM (APPROVAL NUMBER: L1-2373). U2OS cells (purchased from ATCC, Manassas, VA, USA, reference HTB-96) were grown in DMEM medium (Dulbecco’s Modified Eagle Medium, High glucose; GlutaMAX, Life Technologies, Carlsbad, CA, USA) supplemented with 10% fetal bovine serum (Gibco, Grand Island, NY, USA) in a 5% CO2 humidified atmosphere. Cells grown on coverslips were treated for 16 h with each compound or 0.025% DMSO, then fixed with 4% paraformaldehyde in PBS, permeabilized by 0.15% Triton-X100 for 2 min, and blocked for 12 min in 4% BSA in PBS. Immunofluorescence assay was performed using standard protocols with a rabbit anti-phospho-Thr3 Histone H3 and a mouse anti-a-Tubulin (B-5-1-2) obtained from Merck Millipore, Burlington, MA, USA (1/2000 dilution). Coverslips were mounted with Vectashield containing DAPI (Vector Laboratories, Newark, CA, USA). Images were acquired with a Coolsnap HQ2 CCD camera (Photometrics, Tucson, AZ, USA) on a Zeiss Axio microscope (Carl Zeiss, Oberkochen, Germany) using a 63x NA 1.46 objective. Image acquisition and processing were performed using Zen Blue (Carl Zeiss). The H3T3ph signal on chromosomes was normalized against the DAPI signal and analyzed using ImageJ software (NIH, Version 1.54p). Graphs were produced and statistical analysis was performed using GraphPad Prism 10. p-values were determined by t-test; n.s., not significant; **** p ≤ 0.0001.
Figure 4 Evaluation of selected compounds on cellular endogenous Haspin activity. (A) U2OS cells were treated with 2.5 μM of each compound or 1 μM of CHR6494 (CHR) or DMSO for 16 h. Immunofluorescence assay was performed with anti-pH3T3 antibody (green) and anti-a-Tubulin (red); DNA was labelled with DAPI (blue). Representative images of early mitotic cells for each condition are presented. Scale bar: 5 μm. (B) Scatter plot representing H3T3ph/DAPI signal ratio indicative of Haspin activity; n > 17 mitotic cells per condition. n.s., not significant; **** p ≤ 0.0001.

As for `CCCNc1ccc2ncc(-c3ccc4[nH]ncc4c3)n2n1` [CHR-6494, reference compound], the “Effect on endogenous Haspin activity (H3T3 phosphorylation)” value is “abolished Haspin activity”.
